Measured values taken from ChEMBL document CHEMBL1201862, “PubChem BioAssay data set” (2004).
“And” between values parts separate entries of the source, which are not always exact repeats. Equal values may be shown once.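 Cultured in 96-well plates, cells were exposed to test compound for 48 hours across five concentrations. Here, GI50 denotes the concentration required for 50% inhibition of growth.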 The source made the active and inactive calls. Rule as the data show it: active = GI50 up to about 1.1 µM and inactive = higher.

What was measured:
Assay in all cases: DTP human tumour cell line panel, 48 h
MCF7 = system: MCF7
A498 = system: A498
MDA-MB-231 = system: MDA-MB-231
NCI-H23 = system: NCI-H23
RXF 393 = system: RXF 393
LOX IMVI = system: LOX IMVI
Malme-3M = system: Malme-3M
HL-60 = system: HL-60
K562 = system: K562
SK-OV-3 = system: SK-OV-3
SF-295 = system: SF-295
786-0 = system: 786-0
BT-549 = system: BT-549
SNB-19 = system: SNB-19
U-251 = system: U-251
NCI-H460 = system: NCI-H460
SW-620 = system: SW-620
HT-29 = system: HT-29
A549 = system: A549
CAKI-1 = system: CAKI-1
KM12 = system: KM12
Hs-578T = system: Hs-578T
NCI-H226 = system: NCI-H226
UACC-257 = system: UACC-257
SF-268 = system: SF-268
OVCAR-5 = system: OVCAR-5
OVCAR-3 = system: OVCAR-3
TK-10 = system: TK-10
SR = system: SR
RPMI-8226 = system: RPMI-8226
UACC-62 = system: UACC-62
M14 = system: M14
MOLT-4 = system: MOLT-4
SK-MEL-5 = system: SK-MEL-5
HOP-62 = system: HOP-62
SK-MEL-2 = system: SK-MEL-2
SF-539 = system: SF-539
NCI-H522 = system: NCI-H522
SN12C = system: SN12C
ACHN = system: ACHN
IGROV-1 = system: IGROV-1
SK-MEL-28 = system: SK-MEL-28
SNB-75 = system: SNB-75
CCRF-CEM = system: CCRF-CEM
DU-145 = system: DU-145
OVCAR-4 = system: OVCAR-4
OVCAR-8 = system: OVCAR-8
PC-3 = system: PC-3
T47D = system: T47D
HCT-116 = system: HCT-116
HCT-15 = system: HCT-15
UO-31 = system: UO-31
HCC 2998 = system: HCC 2998
COLO 205 = system: COLO 205
MDA-MB-435 = system: MDA-MB-435
EKVX = system: EKVX
NCI/ADR-RES = system: NCI/ADR-RES
MDA-N = system: MDA-N

O=C(O)Cc1ccc(Oc2nc3ccccc3nc2-c2ccccc2)cc1
GI50 (MCF7): 56.5 µM (inactive)
GI50 (A498): > 100 µM (inactive)
GI50 (MDA-MB-231): 58.1 µM (inactive)
GI50 (NCI-H23): 63.8 µM (inactive)
GI50 (RXF 393): 29.2 µM (inactive)
GI50 (LOX IMVI): 60.3 µM (inactive)
GI50 (Malme-3M): 65.8 µM (inactive)
GI50 (HL-60): 67.8 µM (inactive)
GI50 (K562): 97.9 µM (inactive)
GI50 (SK-OV-3): > 100 µM (inactive)
GI50 (SF-295): 79.4 µM (inactive)
GI50 (786-0): > 100 µM (inactive)
GI50 (BT-549): 37 µM (inactive)
GI50 (SNB-19): > 100 µM (inactive)
GI50 (U-251): 56.2 µM (inactive)
GI50 (NCI-H460): 57.8 µM (inactive)
GI50 (SW-620): 63.1 µM (inactive)
GI50 (HT-29): 61.9 µM (inactive)
GI50 (A549): 57.8 µM (inactive)
GI50 (CAKI-1): 63.5 µM (inactive)
GI50 (KM12): 60.5 µM (inactive)
GI50 (Hs-578T): 41.7 µM (inactive)
GI50 (NCI-H226): 30.5 µM (inactive)
GI50 (UACC-257): > 100 µM (inactive)
GI50 (SF-268): 44.5 µM (inactive)
GI50 (OVCAR-5): > 100 µM (inactive)
GI50 (OVCAR-3): 32.6 µM (inactive)
GI50 (TK-10): 97.9 µM (inactive)
GI50 (SR): 4.22 µM (inactive)
GI50 (RPMI-8226): 66.8 µM (inactive)
GI50 (UACC-62): 24.9 µM (inactive)
GI50 (M14): 36.2 µM (inactive)
GI50 (MOLT-4): 86.9 µM (inactive)
GI50 (SK-MEL-5): 59.6 µM (inactive)
GI50 (HOP-62): > 100 µM (inactive)
GI50 (SK-MEL-2): 70 µM (inactive)
GI50 (SF-539): 60.5 µM (inactive)
GI50 (NCI-H522): 42.1 µM (inactive)
GI50 (SN12C): 70 µM (inactive)
GI50 (ACHN): 51.4 µM (inactive)
GI50 (IGROV-1): 45.9 µM (inactive)
GI50 (SK-MEL-28): 90.6 µM (inactive)
GI50 (SNB-75): > 100 µM (inactive)
GI50 (CCRF-CEM): 61.4 µM (inactive)
GI50 (DU-145): 69.7 µM (inactive)
GI50 (OVCAR-4): > 100 µM (inactive)
GI50 (OVCAR-8): > 100 µM (inactive)
GI50 (PC-3): 56 µM (inactive)
GI50 (T47D): > 100 µM (inactive)
GI50 (HCT-116): 85.7 µM (inactive)
GI50 (HCT-15): 65.3 µM
GI50 (UO-31): 36.6 µM (inactive)
GI50 (HCC 2998): 49.5 µM (inactive)
GI50 (COLO 205): 48.4 µM (inactive)
GI50 (MDA-MB-435): 86.1 µM (inactive)
GI50 (EKVX): 27.7 µM (inactive)
GI50 (NCI/ADR-RES): 99.5 µM (inactive)

COC(=O)CCC(C)[C@H]1CCC2C3C(C[C@H](OC(C)=O)[C@@]21C)[C@@]1(C)CCC2(C[C@H]1C[C@H]3OC(C)=O)OOC1(CCC(C)CC1)OO2 (stereo partly drawn)
GI50 (A498): > 100 µM (inactive)
GI50 (MDA-MB-231): 14 µM (inactive) and 20.2 µM (inactive)
GI50 (RXF 393): 72.3 µM (inactive)
GI50 (LOX IMVI): 7.8 µM (inactive) and 5.15 µM (inactive)
GI50 (Malme-3M): 9.51 µM (inactive) and 17.9 µM (inactive)
GI50 (SK-OV-3): > 100 µM (inactive)
GI50 (SNB-19): 75 µM (inactive)
GI50 (U-251): 9.16 µM (inactive) and 5.16 µM (inactive)
GI50 (HT-29): 50.5 µM (inactive) and 55.7 µM (inactive)
GI50 (NCI-H226): 56.6 µM (inactive) and 31.8 µM (inactive)
GI50 (OVCAR-5): > 100 µM (inactive)
GI50 (OVCAR-3): 7.1 µM (inactive) and 6.27 µM (inactive)
GI50 (SR): 4.55 µM (inactive) and 2.46 µM (inactive)
GI50 (UACC-62): < 0.01 µM (active)
GI50 (M14): 32.4 µM (inactive) and 18.2 µM (inactive)
GI50 (SK-MEL-5): 15.7 µM (inactive) and 9.79 µM (inactive)
GI50 (SF-539): > 100 µM (inactive) and 58.6 µM (inactive)
GI50 (SN12C): 34 µM (inactive) and 33.4 µM (inactive)
GI50 (ACHN): 10.1 µM (inactive) and 6.9 µM (inactive)
GI50 (SK-MEL-28): > 100 µM (inactive)
GI50 (CCRF-CEM): 6.38 µM (inactive) and 4.59 µM (inactive)
GI50 (T47D): 10.5 µM (inactive)
GI50 (HCT-116): 5.41 µM (inactive) and 2.77 µM (inactive)
GI50 (MDA-N): 27.4 µM (inactive) and 15.7 µM (inactive)
GI50 (HCC 2998): 51.3 µM (inactive)
GI50 (NCI/ADR-RES): > 100 µM (inactive) and 67.9 µM (inactive)
